Where a name gives a salt, the structure may show the parent alone.
Legend:
p38alpha = molecular target: T1, p38alpha (Homo sapiens, UniProt Q16539); assay: P38Alpha enzyme inhibition assay (Alphascreen kinase activity assay); type: biochemical; settings: 100 pM p38alpha, 250 μM ATP, 2 hours pre-incubation at 25° C., read-out: p38α inhibition (IC50 values)
T1 construct: purchased Invitrogen PV3304
How it was run: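 AlphaScreen read-out: after an EDTA stop, an anti-phospho-ATF2 antibody with Protein A acceptor and donor beads measured substrate phosphorylation. Compounds sat 2 h at 25°C with 100 pM p38α and 0.3 µg/ml ATF-2 fusion protein (pH 7.5, 1% DMSO) before 250 µM ATP was added for 1 h. IC50 from dose-response.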

[1] = system: LPS-stimulated TNFα release from PBMCs; assay: LPS-stimulated PBMC TNFα release assay; type: cell-based; settings: inhibition of TNFα release, human PBMCs, LPS 10 ng/ml, 18 h, ELISA, read-out: p38α inhibition (IC50 values)
How it was run: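 TNFα in supernatants measured by ELISA after 18 h LPS (10 ng/ml) challenge of human PBMCs given 1 h compound pretreatment at 37 °C in medium with 1% FBS. Percent inhibition versus control release fitted to dose-response curves for IC50; at least three independent runs.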

T1 sequence (Q16539 whole entry): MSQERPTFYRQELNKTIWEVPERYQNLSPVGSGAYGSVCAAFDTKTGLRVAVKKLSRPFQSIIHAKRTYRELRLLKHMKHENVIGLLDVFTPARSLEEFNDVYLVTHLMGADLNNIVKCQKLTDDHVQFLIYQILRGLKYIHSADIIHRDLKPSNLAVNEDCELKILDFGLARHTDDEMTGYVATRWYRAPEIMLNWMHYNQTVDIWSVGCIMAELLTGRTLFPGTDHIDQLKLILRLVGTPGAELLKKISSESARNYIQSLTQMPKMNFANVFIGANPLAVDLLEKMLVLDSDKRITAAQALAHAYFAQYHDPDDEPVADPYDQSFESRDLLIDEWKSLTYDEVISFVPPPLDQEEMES

IC50 (p38alpha) [nM]	Structure (SMILES)	IC50 [1] [nM]
< 10	Cc1ccc(-n2nc(C(C)(C)C)cc2NC(=O)N[C@H]2CC[C@@H](Oc3ccc4nnc(N5[C@H](C)CCC[C@@H]5C)n4c3)c3ccccc32)cc1 [Example 100, 1-(5-tert-Butyl-2-p-tolyl-2H-pyrazol-3-yl)-3-{(1S,4R)-4-[3-((2S,6R)-2,6-dimethyl-piperidin-1-yl)-[1,2,4]triazolo[4,3-a]pyridin-6-yloxy]-1,2,3,4-tetrahydro-naphthalen-1-yl}-urea]	< 10
< 10	Cc1ccc(-n2nc(C(C)(C)C)cc2NC(=O)N[C@H]2CC[C@@H](Oc3ccc4nnc(N5CCN(C)CC5)n4c3)c3ccccc32)cc1 [Example 68, 1-(5-tert-Butyl-2-p-tolyl-2H-pyrazol-3-yl)-3-{(1S,4R)-4-[3-(4-methyl-piperazin-1-yl)-[1,2,4]triazolo[4,3-a]pyridin-6-yloxy]-1,2,3,4-tetrahydro-naphthalen-1-yl}-urea]	< 10
< 10	C[C@@H]1CCC[C@H](C)N1c1nnc2ccc(O[C@@H]3CC[C@H](NC(=O)Nc4cc(C(C)(C)C)nn4-c4cccc(CN5CCOCC5)c4)c4ccccc43)cn12 [Example 130, 1-[5-tert-Butyl-2-(3-morpholin-4-ylmethyl-phenyl)-2H-pyrazol-3-yl]-3-{(1S,4R)-4-[3-((2S,6R)-2,6-dimethyl-piperidin-1-yl)-[1,2,4]triazolo[4,3-a]pyridin-6-yloxy]-1,2,3,4-tetrahydro-naphthalen-1-yl}-urea formate salt]	< 10
< 10	COc1c(NC(=O)N[C@H]2CC[C@@H](Oc3ccc4nnc(N5CCCCC5)n4c3)c3ccccc32)cc(C(C)(C)C)cc1NS(C)(=O)=O [Example 104, N-(5-tert-Butyl-2-methoxy-3-{3-[(1S,4R)-4-(3-piperidin-1-yl-[1,2,4]triazolo[4,3-a]pyridin-6-yloxy)-1,2,3,4-tetrahydro-naphthalen-1-yl]-ureido}-phenyl)-methanesulfonamide]	< 10
< 10	CN1CCC[C@H]1c1nnc2ccc(O[C@@H]3CC[C@H](NC(=O)Nc4cc(C(C)(C)C)nn4-c4cccc(OCCO)c4)c4ccccc43)cn12 [Example 42, 1-{5-tert-Butyl-2-[3-(2-hydroxy-ethoxy)-phenyl]-2H-pyrazol-3-yl}-3-{(1S,4R)-4-[3-((S)-1-methyl-pyrrolidin-2-yl)-[1,2,4]triazolo[4,3-a]pyridin-6-yloxy]-1,2,3,4-tetrahydro-naphthalen-1-yl}-urea]	< 10
< 10	Cc1ccc(-n2nc(C(C)(C)C)cc2NC(=O)N[C@H]2CC[C@@H](Oc3ccc4nnc(CN5CCNCC5)n4c3)c3ccccc32)cc1 [Example 7, 1-(5-tert-Butyl-2-p-tolyl-2H-pyrazol-3-yl)-3-[(1S,4R)-4-(3-piperazin-1-ylmethyl-[1,2,4]triazolo[4,3-a]pyridin-6-yloxy)-1,2,3,4-tetrahydro-naphthalen-1-yl]-urea]	100 to 1000
< 10	CC(C)(C)c1cc(NC(=O)N[C@H]2CC[C@@H](Oc3ccc4nnc(N5CCCCC5)n4c3)c3ccccc32)n(-c2cccc(CN3CCN(CCO)CC3)c2)n1 [Example 50, 1-(5-tert-Butyl-2-{3-[4-(2-hydroxy-ethyl)-piperazin-1-ylmethyl]-phenyl}-2H-pyrazol-3-yl)-3-[(1S,4R)-4-(3-piperidin-1-yl-[1,2,4]triazolo[4,3-a]pyridin-6-yloxy)-1,2,3,4-tetrahydro-naphthalen-1-yl]-urea]	< 10
< 10	Cc1ccc(-n2nc(C(C)(C)C)cc2NC(=O)N[C@H]2CC[C@@H](Oc3ccc4nnc(C5(N(C)C)CCCC5)n4c3)c3ccccc32)cc1 [Example 99, 1-(5-tert-Butyl-2-p-tolyl-2H-pyrazol-3-yl)-3-{(1S,4R)-4-[3-(1-dimethylamino-cyclopentyl)-[1,2,4]triazolo[4,3-a]pyridin-6-yloxy]-1,2,3,4-tetrahydro-naphthalen-1-yl}-urea]	< 10
< 10	C[C@H]1CCCCN1c1nnc2ccc(O[C@@H]3CC[C@H](NC(=O)Nc4cc(C(C)(C)C)nn4CCN(C)C)c4ccccc43)cn12 [Example 127, 1-[5-tert-Butyl-2-(2-dimethylamino-ethyl)-2H-pyrazol-3-yl]-3-{(1S,4R)-4-[3-((S)-2-methyl-piperidin-1-yl)-[1,2,4]triazolo[4,3-a]pyridin-6-yloxy]-1,2,3,4-tetrahydro-naphthalen-1-yl}-urea formate salt]	< 10
< 10	CN(C)CCn1cnc(-n2nc(C(C)(C)C)cc2NC(=O)N[C@H]2CC[C@@H](Oc3ccc4nnc(N5CCCCC5)n4c3)c3ccccc32)c1 [Example 119, 1-{5-tert-Butyl-2-[1-(2-dimethylamino-ethyl)-1H-imidazol-4-yl]-2H-pyrazol-3-yl}-3-[(1S,4R)-4-(3-piperidin-1-yl-[1,2,4]triazolo[4,3-a]pyridin-6-yloxy)-1,2,3,4-tetrahydro-naphthalen-1-yl]-urea]	10 to 100
< 10	C[C@H]1CCCCN1c1nnc2ccc(O[C@@H]3CC[C@H](NC(=O)Nc4cc(C(C)(C)C)nn4CCN4CCCCC4)c4ccccc43)cn12 [Example 128, 1-[5-tert-Butyl-2-(2-piperidin-1-yl-ethyl)-2H-pyrazol-3-yl]-3-{(1S,4R)-4-[3-((S)-2-methyl-piperidin-1-yl)-[1,2,4]triazolo[4,3-a]pyridin-6-yloxy]-1,2,3,4-tetrahydro-naphthalen-1-yl}-urea formate salt]	< 10
< 10	CC(C)(C)c1cc(NC(=O)N[C@H]2CC[C@@H](Oc3ccc4nnc(N5CCCCC5)n4c3)c3ccccc32)n(-c2cnn(CCN3CCOCC3)c2)n1 [Example 112, 1-[3-tert-Butyl-1′-(2-morpholin-4-yl-ethyl)-1′H-[1,4′]bipyrazolyl-5-yl]-3-[(1S,4R)-4-(3-piperidin-1-yl-[1,2,4]triazolo[4,3-a]pyridin-6-yloxy)-1,2,3,4-tetrahydro-naphthalen-1-yl]-urea formate salt]	< 10
< 10	CC(C)(C)c1cc(NC(=O)N[C@H]2CC[C@@H](Oc3ccc4nnc(N5CCCCC5)n4c3)c3ccccc32)n(-c2cccc(OCCO)c2)n1 [Example 39, 1-{5-tert-Butyl-2-[3-(2-hydroxy-ethoxy)-phenyl]-2H-pyrazol-3-yl}-3-[(1S,4R)-4-(3-piperidin-1-yl-[1,2,4]triazolo[4,3-a]pyridin-6-yloxy)-1,2,3,4-tetrahydro-naphthalen-1-yl]-urea]	< 10
< 10	Cc1ccc(-n2nc(C(C)(C)C)cc2NC(=O)N[C@H]2CC[C@H](Oc3ccc4nnc(N5CCCCC5)n4c3)c3ccccc32)cc1 [Example 55, 1-(5-tert-Butyl-2-p-tolyl-2H-pyrazol-3-yl)-3-[(1S,4S)-4-(3-piperidin-1-yl-[1,2,4]triazolo[4,3-a]pyridin-6-yloxy)-1,2,3,4-tetrahydro-naphthalen-1-yl]-urea]	< 10
< 10	Cc1ccc(-n2nc(C(C)(C)C)cc2NC(=O)N[C@H]2CC[C@@H](Oc3ccc4nnc([C@]5(CO)CCCN5C)n4c3)c3ccccc32)cc1 [Example 85, 1-(5-tert-Butyl-2-p-tolyl-2H-pyrazol-3-yl)-3-{(1S,4R)-4-[3-((S)-2-hydroxymethyl-1-methyl-pyrrolidin-2-yl)-[1,2,4]triazolo[4,3-a]pyridin-6-yloxy]-1,2,3,4-tetrahydro-naphthalen-1-yl}-urea]	< 10
< 10	Cc1ccc(-n2nc(C(C)(C)C)cc2NC(=O)N[C@H]2CC[C@@H](Oc3ccc4nnc([C@H]5CCCN5C)n4c3)c3ccccc32)cc1 [Example 60, 1-(5-tert-Butyl-2-p-tolyl-2H-pyrazol-3-yl)-3-{(1S,4R)-4-[3-((R)-1-methyl-pyrrolidin-2-yl)-[1,2,4]triazolo[4,3-a]pyridin-6-yloxy]-1,2,3,4-tetrahydro-naphthalen-1-yl}-urea]	< 10
< 10	Cc1ccc(-n2nc(C(C)(C)C)cc2NC(=O)N[C@H]2CC[C@@H](Oc3ccc4nnc(-c5cccc(CN6CCOCC6)c5)n4c3)c3ccccc32)cc1 [Example 19, 1-(5-tert-Butyl-2-p-tolyl-2H-pyrazol-3-yl)-3-{(1S,4R)-4-[3-(3-morpholin-4-ylmethyl-phenyl)-[1,2,4]triazolo[4,3-a]pyridin-6-yloxy]-1,2,3,4-tetrahydro-naphthalen-1-yl}-urea]	< 10
< 10	Cc1ccc(-n2nc(C(C)(C)C)cc2NC(=O)N[C@H]2CC[C@@H](Oc3ccc4nnc(C(C)(C)N(C)C)n4c3)c3ccccc32)cc1 [Example 76, 1-(5-tert-Butyl-2-p-tolyl-2H-pyrazol-3-yl)-3-{(1S,4R)-4-[3-(1-dimethylamino-1-methyl-ethyl)-[1,2,4]triazolo[4,3-a]pyridin-6-yloxy]-1,2,3,4-tetrahydro-naphthalen-1-yl}-urea partial formate salt]	< 10
< 10	Cc1ccc(-n2nc(C(C)(C)C)cc2NC(=O)N[C@H]2CC[C@@H](Oc3ccc4nnc(N5CCC[C@H](CO)C5)n4c3)c3ccccc32)cc1 [Example 78, 1-(5-tert-Butyl-2-p-tolyl-2H-pyrazol-3-yl)-3-{(1S,4R)-4-[3-((S)-3-hydroxymethyl-piperidin-1-yl)-[1,2,4]triazolo[4,3-a]pyridin-6-yloxy]-1,2,3,4-tetrahydro-naphthalen-1-yl}-urea]	< 10
